Measurements from BindingDB's records for doi:10.1016/j.bmcl.2006.12.033 (F. Hoffmann-La Roche, 2007).

Columns and labels:
[1] = target: T1, Metabotropic glutamate receptor 5 (Homo sapiens, UniProt P41594); assay: Antagonist activity at mGluR5 by FLIPR
[2] = target: T1, Metabotropic glutamate receptor 5; assay: Displacement of [3H]MPEP from mGlu5 receptor

T1 sequence (P41594 whole entry): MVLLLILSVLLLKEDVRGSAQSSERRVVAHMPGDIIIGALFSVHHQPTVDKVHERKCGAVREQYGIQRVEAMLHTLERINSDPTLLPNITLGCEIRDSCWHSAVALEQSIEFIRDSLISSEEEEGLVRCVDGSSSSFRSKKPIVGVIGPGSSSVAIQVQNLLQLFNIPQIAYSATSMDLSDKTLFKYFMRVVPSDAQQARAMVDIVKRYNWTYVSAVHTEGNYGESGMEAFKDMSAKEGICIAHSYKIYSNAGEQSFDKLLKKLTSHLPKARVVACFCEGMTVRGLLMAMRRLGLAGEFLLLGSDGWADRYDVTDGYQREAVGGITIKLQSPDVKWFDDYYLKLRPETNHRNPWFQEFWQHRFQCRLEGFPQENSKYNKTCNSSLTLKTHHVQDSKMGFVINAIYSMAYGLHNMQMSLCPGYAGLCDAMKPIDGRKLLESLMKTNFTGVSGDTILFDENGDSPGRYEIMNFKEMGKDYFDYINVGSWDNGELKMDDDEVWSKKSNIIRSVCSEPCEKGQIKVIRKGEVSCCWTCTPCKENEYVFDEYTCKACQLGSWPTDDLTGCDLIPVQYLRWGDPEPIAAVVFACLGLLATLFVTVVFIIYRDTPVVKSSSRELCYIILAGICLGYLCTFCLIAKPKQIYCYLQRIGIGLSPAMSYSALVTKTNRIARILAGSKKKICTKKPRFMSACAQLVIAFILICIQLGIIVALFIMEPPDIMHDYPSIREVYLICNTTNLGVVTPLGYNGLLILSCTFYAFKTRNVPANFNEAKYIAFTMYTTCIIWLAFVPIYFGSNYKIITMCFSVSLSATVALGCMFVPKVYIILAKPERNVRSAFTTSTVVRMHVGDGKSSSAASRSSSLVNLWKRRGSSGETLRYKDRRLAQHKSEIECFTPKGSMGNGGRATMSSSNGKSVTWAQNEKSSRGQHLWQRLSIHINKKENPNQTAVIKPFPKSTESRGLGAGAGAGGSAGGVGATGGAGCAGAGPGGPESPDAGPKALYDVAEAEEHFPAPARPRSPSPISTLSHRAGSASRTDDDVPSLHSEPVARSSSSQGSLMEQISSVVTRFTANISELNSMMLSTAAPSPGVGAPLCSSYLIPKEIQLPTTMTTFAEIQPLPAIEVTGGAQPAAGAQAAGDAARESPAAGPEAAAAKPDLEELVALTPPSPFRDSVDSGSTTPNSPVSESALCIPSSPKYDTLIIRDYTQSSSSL

| IC50 [1] [µM] | IC50 [2] [µM] | Compound |
| --- | --- | --- |
| > 5 | > 5 | Cn1cc(O)nc1NC(=O)Nc1cccnc1 [(E)-1-(1-methyl-4-oxoimidazolidin-2-ylidene)-3-(pyridin-3-yl)urea] |
| > 5 | > 5 | Cn1cc(O)nc1NC(=O)Nc1ccc(Cl)cc1 [(E)-1-(4-chlorophenyl)-3-(1-methyl-4-oxoimidazolidin-2-ylidene)urea] |
